According to US11492667B2, “Compositions and methods for detecting molecular targets on chromosomal DNA” (New England Biolabs, Inc., priority 2020, dated 2022):

B1: Protein G-gHNH: NEFP: Protein G fused via linker to gHNH nicking endonuclease, SEQ ID NO: 5 (protein)
chain: MKGETTTEAVDAATAEKVFKQYANDNGVDGEWTYDDATKTFTVTEKPEVIDASELTPAVTTYKLVINGKTLKGETTTEAVDAATAEKVFKQYANDNGVDGEWTYDDATKTFTVTEKPEVIDASELTPAVTTYKLVINGKTLKGETTTKAVDAETAEKAFKQYANDNGVDGVWTYDDATKTFTVTEGSATIVKKPLRPCCEFHCYNLTRERYCEEHRYKEKETQQDKNRYYDRFKRDKESTAFYRSKAWERLREQALMRDKGLCLHCKNNRKIKVADMVDHIIPIKVDPSLKLKLENLQSLCNPCHNRKTAEDKKKYG

How the values were obtained:
[1] = system: Nt.CviPII-Protein A fusion; assay: Inhibition of nicking activity of Nt.CviPII-Protein A fusion by heparin sodium salt; assay type: biochemical; settings: 2.5 units Nt.CviPII-Protein A, 0.5 μg pUC19, NEBuffer 2, 40 minutes 37° C.
Protocol: In lanes 1-9, 2.5 units of NEFP was added to 0.5 μgs of plasmid DNA in the presence of increasing amounts of heparin (0.15-10 mg/ml). Digestion was not observed when 0.3 mg heparin/ml or greater amounts are present.
To determine the effect of heparin sodium salt on the inhibition of nicking activities of Nt.CviPII-Protein A fusion, reaction tubes containing 10, 5, 2.5, 1.25, 0.62, 0.31, 0.15, and 0 mg/ml heparin, sodium salt were added to a 50 μl reaction, consisting of 5 μl 10×NEBuffer 2, 2.5 units Nt.CviPII-Protein A (as described in Example 1(B)), and 0.5 μg pUC19 DNA and incubated for 40 minutes 37° C. 10 μl of DNA loading dye mix (5×) was added to the samples and were resolved on a 10% polyacrylamide gel. The gel was stained with SYBR® Green (Molecular Probes, Eugene, Oreg.) and scanned on a Typhoon® imager (GE Healthcare Bio-Sciences, Marlborough, Mass.).

[2] = system: antibody-Protein A/G complex; assay: Effect of heparin on antibody-Protein A/G complex (magnetic beads, SDS gel); assay type: binding; settings: 0.125, 0.25, 0.5 and 1 mg/ml Heparin, 30 minutes, room temperature, Sodium Salt
Source text: The numbers on the top indicate added heparin quantity in the reaction mgs/ml.
Antibody heavy and light chains that are bound to Protein A/G can be released by boiling and resolved on an SDS gel (B). Any antibody that was free in solution having been eluted or displaced by heparin from Protein A/G could be visualized without boiling (E).
To determine the effect of heparin on the formation of the antibody-Protein A/G complex, 5 mgs of immobilized and covalently cross-linked protein A/G magnetic beads were bound to 50 μgs of IgG molecules in a 50 μl reaction volume containing 1×PBST at room temperature for 30 minutes. The complex was washed 3 times using 1 ml of 1×PBST and incubated with 0.125, 0.25, 0.5 and 1 mg/ml Heparin for 30 minutes at room temperature in 25 μl total volume. The bead-bound (B) and unbound or bead elution (E) fractions were collected, SDS sample buffer (New England Biolabs, Ipswich, Mass.) was added and the samples were incubated at 95° C. for 5 minutes. Both B and E samples were resolved on tricine 10% acrylamide gel and stained for protein.

[3] = system: DNA-Nt.CviPII-Protein A complex; assay: Gel-shift assay: dissociation of DNA-Nt.CviPII-Protein A complex by heparin; assay type: binding
Protocol: From left to right: C is a control that is DNA in the absence of a NEFP or heparin. 0 is a control in which nicking endonuclease was added to DNA in the absence of heparin. The DNA-NEFP complex (DNA-Nt.CviPII-Protein A complex) is seen as a band at the top of the lane.
To establish that the inhibitory effect of heparin, sodium salt in untethered Nt.CviPII-Protein A fusion activity was due to selective dissociation between DNA substrate and fusion enzyme, a gel-shift assay was performed. Double stranded DNA substrate containing constant amounts of Nt.CviPII binding domains (CCA, 5′[…]-F, F=fluorescein (SEQ ID NO:9)) and 3.2 μM Nt.CviPII-Protein A fusion were combined in the presence of 1×NEBuffer 2 in the absence of magnesium for 30 minutes at room temperature to enable an enzyme-substrate complex to be formed. Increasing amounts of heparin, sodium salt (0, 2.3, 4.6, […], 20, 42, 83, 166, 330 μg/ml) was added to the total 50 μl reaction volume. It was observed that a heparin concentration of greater than 0.2 mgs/ml (at least […]) enabled complete dissociation of the DNA-Nt.CviPII-Protein A complex as observed by the appearance of bands corresponding to DNA alone in a native 6% retardation gel (Thermo Fisher Scientific, Waltham, Mass.). It was concluded that Heparin causes dissociation Nt.CviPII-Protein A fusions from the bound substrate DNA (FIG. 2B).

[4] = system: pBR322 circular double stranded DNA; assay: Nicking activity of Protein G/A-gHNH fusion on plasmid DNA (agarose gel); assay type: biochemical; settings: 1 μg pBR322, NEBuffer 2 with manganese ions, 50 μl, 37° C., 1 hour
Protocol: The nicking activity of Protein G-HNH was compared to a second non-fused nicking endonuclease (Nt.CviPII) (2 units) in the same gel to determine a generalized and consistent cleavage profile and was also compared to a control in the lane labeled 0 containing no nicking endonuclease either fused or unfused.
Protein G/A-gHNH fusion nicking activity was tested on pBR322 circular double stranded DNA using NEBuffer 2 in which magnesium ions were replaced by the same amount of manganese ions (1 mM). 1 μg of plasmid was used with 0.03 to 2 units of Protein G/A-gHNH fusion enzyme in a two-fold serial dilutions (2, 1, 0.5, 0.25, 0.125, 0.06, 0.03 units) in a total volume of 50 μl incubated at 37° C. for 1 hour. 10 μl of DNA loading dye mix (5×) was added to the nicked DNA. The nicked DNA samples were resolved on a 1% agarose gel and visualized under UV light. DNA fragment size was estimated along with 2 log DNA ladder (New England Biolabs, Ipswich, Mass.) and positive control Nt.CviPII (2 units) of the non-fused nicking endonuclease, (New England Biolabs, Ipswich, Mass.) digested pBR322 DNA (FIG. 1B). […] A representative figure supporting this conclusion is provided in FIG. 1B for Protein G-gHNH fusions.

Chain of Nt.CviPII-Protein A fusion (as listed by the source): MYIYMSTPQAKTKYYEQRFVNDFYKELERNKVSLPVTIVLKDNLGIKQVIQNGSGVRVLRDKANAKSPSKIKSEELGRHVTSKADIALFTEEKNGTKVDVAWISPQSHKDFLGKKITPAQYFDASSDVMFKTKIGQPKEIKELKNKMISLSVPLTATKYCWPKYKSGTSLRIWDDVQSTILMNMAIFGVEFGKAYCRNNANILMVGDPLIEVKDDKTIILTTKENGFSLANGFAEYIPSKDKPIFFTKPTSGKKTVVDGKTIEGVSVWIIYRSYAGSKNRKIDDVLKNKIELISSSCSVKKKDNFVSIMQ

Row | Molecule | heparin concentration giving total inhibition of nicking (no digestion) [1] | heparin concentration giving total inhibition of nicking (no digestion) ([1]; listed as heparin) | effect of heparin on antibody bound to Protein A/G beads ([2]; listed as Heparin) | effect of heparin on antibody bound to Protein A/G beads ([2]; listed as heparin) | heparin concentration enabling complete dissociation of the DNA-Nt.CviPII-Protein A complex ([3]; 3.2 μM Nt.CviPII-Protein A, fluorescein dsDNA, NEBuffer 2 without magnesium, room temperature) | heparin concentration at which NEFP is released entirely from the DNA ([3]; FIG. 2B legend, buffer without magnesium ions) | amount of fusion enzyme giving partial digestion of the DNA [4]
1 | Heparin Sodium Salt | 0.15 to 0.31 mg/mL | ≥ 0.3 mg/mL | cannot dissociate Protein A/G-antibody reaction | no elution or displacement of antibody occurred | greater than 0.2 mgs/ml | > 4.6 mg/mL | 
2 | B1 |  |  |  |  |  |  | 0.03 units
